# Reference: US4160829A, “Antibacterial 1,2,4-oxadiazolylacetamido cephalosporins” (Gist-Brocades N.V., priority 1972, dated 1979)
# Read-outs that look alike come from different tables or passages of the source.
# Key:
# pKa determined in water = type: physicochemical
# Bac.Subt.ATCC 6633 = assay: agar serial dilution test; type: cell-based, Bacillus subtilis; settings: Bacillus subtilis, ATCC6633, 24 h, agar serial dilution, 24 hours, 37° C.; read-out: minimal inhibitory concentration (MIC)
# Staph.aureus A 321 = assay: agar serial dilution test; type: cell-based, Staphylococcus aureus; settings: Staphylococcus aureus, A321, 24 h, agar serial dilution, 24 hours, 37° C.; read-out: minimal inhibitory concentration (MIC)
# Staph.aureus A 2000 [1] = assay: agar serial dilution test; type: cell-based, Staphylococcus aureus; settings: Staphylococcus aureus, A2000, 24 h, agar serial dilution, 24 hours, 37° C.; read-out: minimal inhibitory concentration (MIC)
# Strep.haem. A 266 [2] = assay: agar serial dilution test; type: cell-based, Streptococcus haemolyticus; settings: Streptococcus; agar serial dilution, 24 hours, 37° C.; read-out: minimal inhibitory concentration (MIC)
# Strep. faec. L 80 = assay: agar serial dilution test; type: cell-based, Streptococcus faecalis; settings: Enterococcus faecalis; agar serial dilution, 24 hours, 37° C.; read-out: minimal inhibitory concentration (MIC)
# Dipl.pneum. L 54 = assay: agar serial dilution test; type: cell-based, Diplococcus pneumoniae; settings: Streptococcus pneumoniae; agar serial dilution, 24 hours, 37° C.; read-out: minimal inhibitory concentration (MIC)
# Haem.infl. A 1030 [3] = assay: agar serial dilution test; type: cell-based; settings: 24 hours, 37° C., read-out: minimal inhibitory concentration (MIC)
# Bruc.melit. A 488 = assay: microbe, parasite or virus in culture; type: cell-based; settings: Brucella melitensis, 24 h, read-out: minimal inhibitory concentration (MIC)
# Past.multo. A 723 = assay: agar serial dilution test; type: cell-based, Pasteurella multocida; settings: Pasteurella multocida; agar serial dilution, 24 hours, 37° C.; read-out: minimal inhibitory concentration (MIC)
# Kleb.pneum. A 809 = assay: agar serial dilution test; type: cell-based, Klebsiella pneumoniae; settings: Klebsiella pneumoniae; agar serial dilution, 24 hours, 37° C.; read-out: minimal inhibitory concentration (MIC)
# Salm.dubl. P 43 = assay: agar serial dilution test; type: cell-based, Salmonella dublin; settings: Salmonella enterica; agar serial dilution, 24 hours, 37° C.; read-out: minimal inhibitory concentration (MIC)
# Esch.coli U 20 = assay: agar serial dilution test; type: cell-based, Escherichia coli; settings: Escherichia coli
# Shig.equir. T 3 = assay: agar serial dilution test; type: cell-based; settings: 24 h, 37° C., read-out: minimal inhibitory concentration (MIC)
# Pseud.aerug. H 10 = assay: agar serial dilution test; type: cell-based; settings: agar serial dilution, 24 hours, 37° C.; read-out: minimal inhibitory concentration (MIC)
# Pseud.aerug. 2396 = assay: agar serial dilution test; type: cell-based; settings: agar serial dilution, 24 hours, 37° C.; read-out: minimal inhibitory concentration (MIC)
# [4] = system: Pseud.aerug. Wyeth A 1058; assay: agar serial dilution test; type: cell-based; settings: agar serial dilution, 24 hours, 37° C.; read-out: minimal inhibitory concentration (MIC)
# Prot.rettg. A 821 = assay: agar serial dilution test; type: cell-based, Proteus rettgeri; settings: Providencia rettgeri, 24 h, read-out: minimal inhibitory concentration (MIC)
# Prot.mirab. H 3 = assay: agar serial dilution test; type: cell-based, Proteus mirabilis; settings: Proteus mirabilis; agar serial dilution, 24 hours, 37° C.; read-out: minimal inhibitory concentration (MIC)
# Prot.mirab. L 93 = assay: agar serial dilution test; type: cell-based, Proteus mirabilis; settings: Proteus mirabilis; agar serial dilution, 24 hours, 37° C.; read-out: minimal inhibitory concentration (MIC)
# Prot.morg. 2241 = assay: agar serial dilution test; type: cell-based; settings: 24 h, agar serial dilution, 24 hours, 37° C.; read-out: minimal inhibitory concentration (MIC)
# Staph.aureus A 355 [5] = assay: agar serial dilution test; settings: Staphylococcus aureus, A355, 24 h, read-out: minimal inhibitory concentration (MIC), agar serial dilution, 24 hours, 37° C.; penicillinase-producing strain
# Staph.aureus A 2001 [6] = assay: agar serial dilution test; type: cell-based, Staphylococcus aureus; settings: Staphylococcus aureus, A2001, 24 h, agar serial dilution, 24 hours, 37° C.; read-out: minimal inhibitory concentration (MIC)
# Salm.typh. R 127 = assay: agar serial dilution test; type: cell-based; settings: 24 h, 37° C., read-out: minimal inhibitory concentration (MIC)
# Prot.mirab. A 1200 = assay: agar serial dilution test; type: cell-based, Proteus mirabilis; settings: Proteus mirabilis, 24 h, agar serial dilution, 24 hours, 37° C.; read-out: minimal inhibitory concentration (MIC)
# Staph.aureus A 355 [7] = assay: micro serial dilution test; type: cell-based, Staphylococcus aureus; settings: Staphylococcus aureus, A355; micro serial dilution (in brackets), about 18 hours, 30° C. or 37° C.; penicillinase-producing strain; read-out: minimal inhibitory concentration (MIC)
# Staph.aureus A 2000 [8] = assay: micro serial dilution test; type: cell-based, Staphylococcus aureus; settings: Staphylococcus aureus, A2000, 18 h, micro serial dilution (in brackets), about 18 hours, 30° C. or 37° C.; read-out: minimal inhibitory concentration (MIC)
# Staph.aureus A 2001 [9] = assay: micro serial dilution test; type: cell-based, Staphylococcus aureus; settings: Staphylococcus aureus, A2001, 18 h, micro serial dilution (in brackets), about 18 hours, 30° C. or 37° C.; read-out: minimal inhibitory concentration (MIC)
# Strep.haem. A 266 [10] = assay: micro serial dilution test; type: cell-based, Streptococcus haemolyticus; settings: Streptococcus; micro serial dilution (in brackets), about 18 hours, 30° C. or 37° C.; read-out: minimal inhibitory concentration (MIC)
# Haem.infl. A 1030 [11] = assay: micro serial dilution test; type: cell-based; settings: 18 h, micro serial dilution (in brackets), about 18 hours, 30° C. or 37° C.; read-out: minimal inhibitory concentration (MIC)
# [12] = U20, agar serial dilution, 24 hours, 37° C., read-out: minimal inhibitory concentration (MIC)
# [13] = agar serial dilution, 24 hours, 37° C.
smiles,measurement,setting,value
"Cc1nc(CC(=O)O)no1 [Example 4, 5-methyl-1,2,4-oxadiazol-3-yl-acetic acid]",pKa,pKa determined in water,~3.4
"CC1(C)S[C@@H]2[C@H](NC(=O)Cc3nc(-c4c(Cl)cccc4Cl)no3)C(=O)N2[C@H]1C(=O)O [Example 11A, 6-{[3-(2,6-dichlorophenyl)-1,2,4-oxadiazol-5-yl]-acetamido}penicillanic acid]",MIC,Bac.Subt.ATCC 6633,0.06 µg/mL
same,MIC,Staph.aureus A 321,0.06 µg/mL
same,MIC,Staph.aureus A 2000 [1],3 µg/mL
same,MIC,Strep.haem. A 266 [2],1 µg/mL
same,MIC,Strep. faec. L 80,25 µg/mL
same,MIC,Dipl.pneum. L 54,3 µg/mL
same,MIC,Haem.infl. A 1030 [3],100 µg/mL
same,MIC,Bruc.melit. A 488,3 µg/mL
same,MIC,Past.multo. A 723,3 µg/mL
same,MIC,Kleb.pneum. A 809,> 100 µg/mL
same,MIC,Salm.dubl. P 43,> 100 µg/mL
same,MIC,Esch.coli U 20; [12],> 100 µg/mL
same,MIC,Shig.equir. T 3,25 µg/mL
same,MIC,Pseud.aerug. H 10,> 100 µg/mL
same,MIC,Pseud.aerug. 2396,> 100 µg/mL
same,MIC,[4],> 100 µg/mL
same,MIC,Prot.rettg. A 821; [13],> 100 µg/mL
same,MIC,Prot.mirab. H 3,> 100 µg/mL
same,MIC,Prot.mirab. L 93,> 100 µg/mL
same,MIC,Prot.morg. 2241,> 100 µg/mL
same,MIC,Staph.aureus A 355 [5],3 µg/mL
"CCc1noc(CC(=O)N[C@@H]2C(=O)N3[C@@H]2SC(C)(C)[C@@H]3C(=O)O)n1 [Example 11G, sodium 6-[(3-ethyl-1,2,4-oxadiazol-5-yl)-acetamido]-penicillanate H2 O]",MIC,Bac.Subt.ATCC 6633,0.03 µg/mL
same,MIC,Staph.aureus A 321,0.12 µg/mL
same,MIC,Staph.aureus A 2000 [1],1.5 µg/mL
same,MIC,Staph.aureus A 2001 [6],1 µg/mL
same,MIC,Strep. faec. L 80,3 µg/mL
same,MIC,Dipl.pneum. L 54,0.25 µg/mL
same,MIC,Bruc.melit. A 488,1.5 µg/mL
same,MIC,Past.multo. A 723,1 µg/mL
same,MIC,Kleb.pneum. A 809,> 100 µg/mL
same,MIC,Salm.dubl. P 43,12.5 µg/mL
same,MIC,Salm.typh. R 127,25 µg/mL
same,MIC,Esch.coli U 20; [12],100 µg/mL
same,MIC,Shig.equir. T 3,10 µg/mL
same,MIC,Pseud.aerug. H 10,> 100 µg/mL
same,MIC,Pseud.aerug. 2396,> 100 µg/mL
same,MIC,[4],> 100 µg/mL
same,MIC,Prot.rettg. A 821; [13],3 µg/mL
same,MIC,Prot.mirab. H 3,> 100 µg/mL
same,MIC,Prot.mirab. L 93,12.5 µg/mL
same,MIC,Prot.mirab. A 1200,100 µg/mL
same,MIC,Prot.morg. 2241,> 100 µg/mL
same,MIC,Staph.aureus A 355 [7],30 µg/mL
same,MIC,Staph.aureus A 2000 [8],23 µg/mL
same,MIC,Staph.aureus A 2001 [9],3.7 µg/mL
same,MIC,Strep.haem. A 266 [10],0.5 µg/mL
same,MIC,Haem.infl. A 1030 [11],125 µg/mL
same,MIC,Staph.aureus A 355 [5],3 µg/mL
"C=CCNC(=O)Cc1nc(CC(=O)N[C@@H]2C(=O)N3C(C(=O)O)=C(COC(C)=O)CS[C@H]23)no1 [Example 31, 7-[5-(N-propen-3-yl)-carbamoylmethyl-1,2,4-oxadiazol-3-yl-acetamido]-cephalosporanic acid]",MIC,Bac.Subt.ATCC 6633,1 µg/mL
same,MIC,Staph.aureus A 321,1.5 µg/mL
same,MIC,Staph.aureus A 2000 [1],3 µg/mL
same,MIC,Staph.aureus A 2001 [6],3 µg/mL
same,MIC,Strep. faec. L 80,25 µg/mL
same,MIC,Dipl.pneum. L 54,1.5 µg/mL
same,MIC,Past.multo. A 723,1.5 µg/mL
same,MIC,Kleb.pneum. A 809,6 µg/mL
same,MIC,Salm.dubl. P 43,6 µg/mL
same,MIC,Salm.typh. R 127,12.5 µg/mL
same,MIC,"Esch.coli U 20; U20, 24 h, read-out: minimal inhibitory concentration (MIC), agar serial dilution, 24 hours, 37° C.",12.5 µg/mL
same,MIC,Shig.equir. T 3,12.5 µg/mL
same,MIC,Pseud.aerug. H 10,> 100 µg/mL
same,MIC,Pseud.aerug. 2396,> 100 µg/mL
same,MIC,[4],> 100 µg/mL
same,MIC,Prot.rettg. A 821,12.5 µg/mL
same,MIC,Prot.mirab. H 3,25 µg/mL
same,MIC,Prot.mirab. L 93,6 µg/mL
same,MIC,Prot.mirab. A 1200,25 µg/mL
same,MIC,Prot.morg. 2241,> 100 µg/mL
same,MIC,Staph.aureus A 355 [7],1.9 µg/mL
same,MIC,Staph.aureus A 2000 [8],1.2 µg/mL
same,MIC,Staph.aureus A 2001 [9],1.2 µg/mL
same,MIC,Strep.haem. A 266 [10],2.5 µg/mL
same,MIC,Haem.infl. A 1030 [11],≥ 125 µg/mL
same,MIC,Staph.aureus A 355 [5],6 µg/mL
